{"source": "patent US11548878B2", "about": "“Emopamil binding protein binding agent and use thereof” (FUJIFILM Toyama Chemical Co., Ltd., priority 2017, dated 2023)", "molecular_target": "T1, EBP (Homo sapiens, UniProt Q15125)", "T1 construct": "A membrane fraction was collected from sigma-1 receptor-deficient human neuroblastoma (SH-SY5Y) cells; endogenous in cells; host or cells: sigma-1 receptor-deficient SH-SY5Y human neuroblastoma cells (membrane fraction)", "T1 sequence (Q15125 2-230 limits assumed)": "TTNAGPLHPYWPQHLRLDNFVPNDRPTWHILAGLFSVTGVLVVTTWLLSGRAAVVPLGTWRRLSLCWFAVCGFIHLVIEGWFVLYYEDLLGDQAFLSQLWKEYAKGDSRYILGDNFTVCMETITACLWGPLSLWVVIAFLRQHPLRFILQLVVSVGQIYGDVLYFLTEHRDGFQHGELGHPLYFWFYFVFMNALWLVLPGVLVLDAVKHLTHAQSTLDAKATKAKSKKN", "experiment": "EBP Binding Test (Test Example 1): tritium-labeled Compound A binding to membrane fractions of sigma-1 receptor-deficient SH-SY5Y cells with EBP deleted or overexpressed", "protocol": "The binding ability of Compound A to EBP was examined. The test was carried out in accordance with Receptor Signal Transduction Protocols, pp. 135-164 (ISBN 978-1-61779-125-3).\nA membrane fraction was collected from sigma-1 receptor-deficient human neuroblastoma (SH-SY5Y) cells, in which EBP was deleted or was overexpressed. Inactivated fetal bovine serum was added to a liquid medium DMEM (Dulbecco's Modified Eagle's Medium) to a final concentration of 10%, and then, a Penicillin-Streptomycin solution (10000 U/mL Penicillin-10000 μg/mL Streptmycin) was added to the medium to a final concentration of 100 U/mL Penicillin-100 μg/mL Streptmycin. The SH-SY5Y cells were cultured in the thus prepared medium.\nThe method of preparing a membrane fraction is as follows. The cells cultured to a subconfluent state were recovered using a cell scraper, and were then suspended in a 50 mM Tris-HCl (pH=7.4) buffer, followed by disintegrating the cells with an ultrasonic disintegrator. The disintegrated solution was centrifuged (1000 g, 10 minutes), and the supernatant was then ultracentrifuged (28000 rpm, 30 minutes). Thereafter, the obtained precipitate was re-suspended in a 50 mM Tris-HCl (pH=7.4) buffer to obtain a membrane fraction. Regarding the thus prepared membrane fraction, the protein concentration was measured according to a BCA method, and the membrane fraction was then adjusted to a concentration of approximately 1 mg/mL. […]\nThe receptor binding test method is as follows. […] Thereafter, a liquid scintillation cocktail was added thereto, and the radiation dose (CPM) in each well was then measured using a scintillation counter.\nThe specific binding ability of Compound A to EBP was determined by subtracting the radiation dose of the control (Non-specific binding) from the radiation dose derived from the tritium-labeled Compound A at each concentration (Total binding). Since the amount of the protein used was different depending on the cell membrane, CPM per μg of the membrane fraction protein used in the reaction was calculated (CPM/protein amount).", "data": [{"smiles": "OC1CN(CCCOCCc2ccc3sccc3c2)C1", "note": "[Compound A]", "values": [{"measurement": "affinity for EBP", "setting": "conclusion from FIG. 1 and FIG. 2", "value": "high affinity"}, {"measurement": "radiation dose (specific binding, CPM/protein amount) in sigma-1 receptor-deficient and EBP-deficient cells compared with sigma-1 receptor-deficient cells", "setting": "membrane fraction of SH-SY5Y cells, tritium-labeled Compound A 0.05-100.0 nM, 37° C. for 2 hours, FIG. 1", "value": "lower"}, {"measurement": "radiation dose (specific binding, CPM/protein amount) in sigma-1 receptor-deficient and EBP-overexpressing cells compared with sigma-1 receptor-deficient cells", "setting": "membrane fraction of SH-SY5Y cells, tritium-labeled Compound A 0.05-100.0 nM, 37° C. for 2 hours, FIG. 2", "value": "higher"}]}]}
